Peptide text beside a SMILES is read from it. * marks the point of attachment. Cbz = O=C(OCc1ccccc1)*; CHN2 = [N-]=[N+]=C*; tBu = CC(C)(C)*
System: northern shrimp cathepsin L1
Assay: Effects of inhibitors on northern shrimp cathepsin L1, residual activity with Z-Phe-Arg-MCA
Format: biochemical, northern shrimp (Pandalus eous)
Conditions: for Residual activity (%): enzyme 1 nM, Z-Phe-Arg-MCA 100 μM
Protocol: Enzymatic activity was assayed at 25° C. using intramolecularly quenched MCA (methyl coumarylamide) substrates in a buffer containing 100 mM sodium acetate, pH 6.0, 100 mM NaCl, 2 mM DTT, 2 mM EDTA and 0.01% Brij-35. The substrate solution was prepared in dimethyl sulfoxide at a concentration of 20 mM. Hydrolysis was initiated by adding the enzyme diluted with the same buffer. Enzymatic activity was determined by measuring fluorescence intensity of the released 7-amino-4-methylcoumarin (AMC) at an excitation wavelength of 380 nm and an emission wavelength of 460 nm.
Enzyme solution was pretreated with any one of inhibitors E64 (L-trans-epoxysuccinyl-leucyl-agmatine), Z-Phe-Phe-CHN2, Z-Phe-Tyr(t-Bu)-CHN2, leupeptin, antipain, PMSF (phenylmethylsulfonyl fluoride), and 1,10-phenanthroline in a buffer (containing 100 mM sodium acetate, 2 mM DTT, 2 mM EDTA, and 0.05% Triton X-100). Residual enzymatic activity was then measured with fluorescent substrate Z-Phe-Arg-MCA. The final concentrations of the enzymes and the substrate were 1 nM and 100 μM, respectively. The residual enzymatic activity was measured with the method described above.

Compound	Inhibition of northern shrimp cathepsin L1 (in words)	Residual activity (%) (inhibitor 0.1 μM)	Residual activity (%) (inhibitor 1 μM)	Residual activity (%) (inhibitor 1 mM)	Residual activity (%) (inhibitor 10 mM)	Residual activity (%) (inhibitor 10 μM)
CC(C)C[C@H](NC(=O)[C@H]1O[C@@H]1C(=O)O)C(=O)NCCCCN=C(N)N (relative stereo) [E64, L-trans-epoxysuccinyl-leucyl-agmatine]	strongly inhibited	0%	0%	–	–	–
c1cnc2c(c1)ccc1cccnc12 [1,10-Phenanthroline, 1,10-phenanthroline]	–	–	–	99%	98%	–
CC(=O)N[C@@H](CC(C)C)C(=O)N[C@@H](CC(C)C)C(=O)N[C@H](C=O)CCCNC(=N)N [Leupeptin, leupeptin]	strongly inhibited	–	0%	–	–	0%
O=S(=O)(F)Cc1ccccc1 [PMSF, phenylmethylsulfonyl fluoride]	–	–	–	100%	100%	–
[N-]=[N+]=CC(=O)[C@H](Cc1ccccc1)NC(=O)[C@H](Cc1ccccc1)NC(=O)OCc1ccccc1 [Z-Phe-Phe-CHN2] (Cbz-Phe-Phe-CHN2)	did not inhibit the present enzyme activity so much	–	78%	–	–	55%
CC(C)(C)Oc1ccc(C[C@H](NC(=O)[C@H](Cc2ccccc2)NC(=O)OCc2ccccc2)C(=O)C=[N+]=[N-])cc1 [Z-Phe-Tyr(t-Bu)-CHN2] (Cbz-Phe-Tyr(tBu)-CHN2)	did not inhibit the present enzyme activity so much	–	94%	–	–	86%
